Data taken from US20220332839A1, “USE OF PRG4 TO TREAT CANCER” (Lubris LLC, priority 2019, published 2022).

Test system: non-metastatic triple negative breast cancer
Experiment: Treatment of a human with triple negative breast cancer, local injection
Format: in vivo
Procedure: (§1) A human diagnosed with non-metastatic triple negative breast cancer is administered recombinant human PRG4 (rhPRG4) by local injection to the area of the tumor. Administration is done under local anesthesia. A total amount of 2 mL of rhPRG4 in physiological saline at a concentration of 100 ug/mL is administered via a 14 gauge needle. Several injections are made into the tumor and over its surface in order to disperse the dose throughout the tumor area. The dose is administered once weekly for four weeks.
as §1, with “weeks. During the dosing rhPRG4 schedule, the patient also receives a cocktail of taxane and doxorubicin per standard protocols.” for “weeks.”

## rhPRG4: full-length recombinant human PRG4 (lubricin) glycoprotein produced by CHO-M cells; residues 25-1404 of SEQ ID NO:1
2 mL of 100 ug/mL rhPRG4, local injection, once weekly for four weeks
  tumor size by CT scan after four weeks: tumor has shrunk in size
2 mL of 100 ug/mL rhPRG4 locally weekly plus taxane and doxorubicin
  tumor size by CT scan after four weeks, with taxane and doxorubicin: shrunk in size and at a rate faster
